What was measured:
Format in all cases: biochemical
[1] = molecular target: T1, Candida antarctica lipase B (CALB), wild type, SEQ ID NO: 2, L1/P317 (Moesziomyces antarcticus, UniProt P41365); test: Initial rate of hydrolysis of DiFMU octanoate, wild type; details: kcat/KM (variant)/kcat/KM (wild type)
T1 sequence (P41365 26-342): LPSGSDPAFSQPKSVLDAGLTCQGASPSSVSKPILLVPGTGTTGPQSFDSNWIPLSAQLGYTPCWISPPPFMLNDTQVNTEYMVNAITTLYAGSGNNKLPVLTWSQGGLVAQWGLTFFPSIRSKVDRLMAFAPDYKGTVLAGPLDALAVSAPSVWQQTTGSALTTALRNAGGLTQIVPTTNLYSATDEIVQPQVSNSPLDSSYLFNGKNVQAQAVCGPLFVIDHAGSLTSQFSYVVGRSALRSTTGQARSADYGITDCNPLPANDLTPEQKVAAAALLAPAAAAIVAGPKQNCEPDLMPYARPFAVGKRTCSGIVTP
Text: (§1) Kinetic analysis of protein variants: To examine the impact of circular permutation on catalysis eleven functional CALB variants with termini in or near the active site were selected for detailed kinetic characterization. The locations of the termini in these variants are shown on the structure of CALB in FIG. 6; the numbers correspond to the amino acid residue of the new terminus. Following overexpression in P. pastoris, the selected circularly permuted proteins were purified to homogeneity. The catalytic performance of these variants was determined in activity assays with two standard lipase substrates, measuring the initial rates of hydrolysis of the chromogenic substrate p-nitrophenol butyrate (pNB) and the fluorogenic substrate 6,8-difluoro-4-methylumbelliferyl (DiFMU) octanoate. […]
(§2) Lipase activity was determined by measuring the initial hydrolysis rate of p-NB and DiFMU octanoate at room temperature on a Synergy-HT microtiterplate reader (Bio-Tek Instruments, Winooski, Vt.). Stock solutions of p-NB (200 mM) and DiFMU octanoate (3 mM) were prepared in DMSO. p-NB hydrolysis over a substrate range of 0-1.6 mM was measured in 50 mM K-phosphate buffer (pH 7.5) at 400 nm ( ? for p-NB=13260 M^1 cm^−1) as described in Bender, M. L. et al., J Am Chem Soc 1968, 90, (1), 201-7, which is hereby incorporated by reference. […]

[2] = molecular target: T2, Candida antarctica lipase B (CALB) circularly permuted variant cp44, G44/T43 (Moesziomyces antarcticus, UniProt P41365); test: Initial rate of hydrolysis of DiFMU octanoate, cp44
T2 construct: Pichia pastoris, purified
Text: (§3) Kinetic analysis of protein variants: To examine the impact of circular permutation on catalysis eleven functional CALB variants with termini in or near the active site were selected for detailed kinetic characterization. The locations of the termini in these variants are shown on the structure of CALB in FIG. 6; the numbers correspond to the amino acid residue of the new terminus. Following overexpression in P. pastoris, the selected circularly permuted proteins were purified to homogeneity. The catalytic performance of these variants was determined in activity assays with two standard lipase substrates, measuring the initial rates of hydrolysis of the chromogenic substrate p-nitrophenol butyrate (pNB) and the fluorogenic substrate 6,8-difluoro-4-methylumbelliferyl (DiFMU) octanoate.
(§4) The overexpression and purification of wild type CALB was performed as described in Rotticci-Mulder, J. C. et al., Protein Expr Purif 2001, 21, (3), 386-92, which is hereby incorporated by reference. The same protocol was adopted for the isolation of circular permutation variants of CALB. Briefly, pPIC9-ca/B was linearized by SacI digestion and electroporated into P. pastoris cells (GS115). Aliquots were plated on MD His^− plates and incubated at 30° C. Colonies appeared on plates after 2 days of incubation. A single colony was picked to inoculate 25 ml BMGY medium and the culture was incubated at 30° C. until it reached an OD600 of 2-6. The cells were harvested and resuspended in BMMY medium to an OD600 of 1. Protein expression was induced by addition of methanol to a final concentration of 0.5% (v/v) every 24 hours. After 4 days of incubation, the culture medium containing the lipase was separated from the cells by centrifugation (1500 g, 4° C., 10 min).
(§5) Lipase activity was determined by measuring the initial hydrolysis rate of p-NB and DiFMU octanoate at room temperature on a Synergy-HT microtiterplate reader (Bio-Tek Instruments, Winooski, Vt.). Stock solutions of p-NB (200 mM) and DiFMU octanoate (3 mM) were prepared in DMSO. p-NB hydrolysis over a substrate range of 0-1.6 mM was measured in 50 mM K-phosphate buffer (pH 7.5) at 400 nm ( ? for p-NB=13260 M^1 cm^−1) as described in Bender, M. L. et al., J Am Chem Soc 1968, 90, (1), 201-7, which is hereby incorporated by reference. The rate of DiFMU octanoate hydrolysis was determined by measuring the DiFMU formation over a substrate range of 0-12 μM in 50 mM K-phosphate buffer (pH 7.0) at an excitation/emission wavelength 360/460 nm. Kinetic constants were calculated by fitting the initial rates to the Michaelis-Menten equation using the Origin® software (version 7; OriginLab Corporation).

[3] = molecular target: T3, Candida antarctica lipase B (CALB) circularly permuted variant cp144, His-L144/A141 (Moesziomyces antarcticus, UniProt P41365); test: Initial rate of hydrolysis of DiFMU octanoate, cp144 (His)
T3 construct: secreted from Pichia pastoris GS115, purified
Text: as §3, §4, §5

[4] = molecular target: T4, Candida antarctica lipase B (CALB) circularly permuted variant cp144a, L144/A141 (Moesziomyces antarcticus, UniProt P41365); test: Initial rate of hydrolysis of DiFMU octanoate, cp144a
T4 construct: Pichia pastoris, purified
Text: as §3, §4
as §5, with “Corporation). […]” for “Corporation).”

[5] = molecular target: T5, Candida antarctica lipase B (CALB) circularly permuted variant cp148, His-A148/L147 (Moesziomyces antarcticus, UniProt P41365); test: Initial rate of hydrolysis of DiFMU octanoate, cp148 (His)
T5 construct: Pichia pastoris, purified
Text: as §3, §4, §5

[6] = molecular target: T6, Candida antarctica lipase B (CALB) circularly permuted variant cp148a, A148/L147 (Moesziomyces antarcticus, UniProt P41365); test: Initial rate of hydrolysis of DiFMU octanoate, cp148a
T6 construct: Pichia pastoris, purified
Text: as §3, §4
as §5, with “Corporation). […]” for “Corporation).”

[7] = molecular target: T7, Candida antarctica lipase B (CALB) circularly permuted variant cp150, His-S150A/149 (Moesziomyces antarcticus, UniProt P41365); test: Initial rate of hydrolysis of DiFMU octanoate, cp150 (His)
T7 construct: Pichia pastoris, purified
Text: as §3, §4, §5

[8] = molecular target: T8, Candida antarctica lipase B (CALB) circularly permuted variant cp150, S150/V149 (Moesziomyces antarcticus, UniProt P41365); test: Initial rate of hydrolysis of DiFMU octanoate, cp150 (S150/V149)
T8 construct: Pichia pastoris, purified
Text: as §3, §4
as §5, with “Corporation). […]” for “Corporation).”

[9] = molecular target: T9, Candida antarctica lipase B (CALB) circularly permuted variant cp268, P268/T267 (Moesziomyces antarcticus, UniProt P41365); test: Initial rate of hydrolysis of DiFMU octanoate, cp268
T9 construct: Pichia pastoris, purified
Text: as §3, §4, §5
(§6) The present study included ten CALB variants. […]

[10] = molecular target: T1, Candida antarctica lipase B (CALB), wild type, SEQ ID NO: 2, L1/P317; test: Initial rate of hydrolysis of p-nitrophenol butyrate (pNB), wild type; details: kcat/KM (variant)/kcat/KM (wild type)
Text: as §1, §2

[11] = molecular target: T2, Candida antarctica lipase B (CALB) circularly permuted variant cp44, G44/T43; test: Initial rate of hydrolysis of pNB, cp44
Text: as §3, §4, §5

[12] = molecular target: T3, Candida antarctica lipase B (CALB) circularly permuted variant cp144, His-L144/A141; test: Initial rate of hydrolysis of pNB, cp144 (His)
Text: as §3, §4, §5

[13] = molecular target: T4, Candida antarctica lipase B (CALB) circularly permuted variant cp144a, L144/A141; test: Initial rate of hydrolysis of pNB, cp144a
Text: as §3, §4
as §5, with “Corporation). […]” for “Corporation).”

[14] = molecular target: T5, Candida antarctica lipase B (CALB) circularly permuted variant cp148, His-A148/L147; test: Initial rate of hydrolysis of pNB, cp148 (His)
Text: as §3, §4, §5

[15] = molecular target: T6, Candida antarctica lipase B (CALB) circularly permuted variant cp148a, A148/L147; test: Initial rate of hydrolysis of pNB, cp148a
Text: as §3, §4
as §5, with “Corporation). […]” for “Corporation).”

[16] = molecular target: T10, Candida antarctica lipase B (CALB) circularly permuted variant cp150, His-S150/V149 (Moesziomyces antarcticus, UniProt P41365); test: Initial rate of hydrolysis of pNB, cp150 (His)
T10 construct: Pichia pastoris, purified
Text: as §3, §4, §5

[17] = molecular target: T8, Candida antarctica lipase B (CALB) circularly permuted variant cp150, S150/V149; test: Initial rate of hydrolysis of pNB, cp150 (S150/V149)
Text: as §3, §4
as §5, with “Corporation). […]” for “Corporation).”

[18] = molecular target: T9, Candida antarctica lipase B (CALB) circularly permuted variant cp268, P268/T267; test: Initial rate of hydrolysis of pNB, cp268
Text: as §3, §4, §5, §6

[19] = 50 mM K-phosphate pH 7.0, room temperature
[20] = kcat/KM (variant)/kcat/KM (wild type)
[21] = 50 mM K-phosphate pH 7.5, room temperature

T7 sequence (P41365 26-342, stated change not applied): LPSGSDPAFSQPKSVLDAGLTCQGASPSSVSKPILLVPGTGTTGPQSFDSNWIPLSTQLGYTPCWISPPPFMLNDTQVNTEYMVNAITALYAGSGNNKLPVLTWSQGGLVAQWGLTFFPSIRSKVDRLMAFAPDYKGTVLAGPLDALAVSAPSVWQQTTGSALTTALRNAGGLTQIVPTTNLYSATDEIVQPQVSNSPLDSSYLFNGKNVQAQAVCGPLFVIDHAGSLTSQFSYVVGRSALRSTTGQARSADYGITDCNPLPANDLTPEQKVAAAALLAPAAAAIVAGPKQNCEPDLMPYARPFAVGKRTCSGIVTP

## CCCCCCCC(=O)Oc1c(F)cc2c(C)cc(=O)oc2c1F [DiFMU octanoate, 6,8-difluoro-4-methylumbelliferyl octanoate]
[1]
  relative specificity: 1.0
[2]; [19]
  Km: 5.6 ± 0.8 µM
[2]; [20]
  relative specificity: 0.13
[2]; pH 7.0, room temperature
  kcat: 0.0083 ± 0.00083 s⁻¹
  kcat/KM: 1700 M⁻¹ s⁻¹
[3]; [19]
  Km: 2 ± 0.5 µM
[3]; [20]
  relative specificity: 0.6
[3]; pH 7.0, room temperature
  kcat: 0.017 ± 0.0017 s⁻¹
  kcat/KM: 8300 M⁻¹ s⁻¹
[4]; [19]
  Km: 3 ± 0.3 µM
[4]; [20]
  relative specificity: 0.6
[4]; pH 7.0, room temperature
  kcat: 0.025 ± 0.0017 s⁻¹
  kcat/KM: 8300 M⁻¹ s⁻¹
[5]; [19]
  Km: 3.5 ± 0.5 µM
[5]; [20]
  relative specificity: 0.4
[5]; pH 7.0, room temperature
  kcat: 0.025 ± 0.0033 s⁻¹
  kcat/KM: 5830 M⁻¹ s⁻¹
[6]; [19]
  Km: 6.1 ± 0.7 µM
[6]; [20]
  relative specificity: 0.7
[6]; pH 7.0, room temperature
  kcat: 0.0583 ± 0.0033 s⁻¹
  kcat/KM: 9500 M⁻¹ s⁻¹
[7]; [19]
  Km: 2.7 ± 0.8 µM
[7]; [20]
  relative specificity: 1.0
[7]; pH 7.0, room temperature
  kcat: 0.035 ± 0.0033 s⁻¹
  kcat/KM: 13000 M⁻¹ s⁻¹
[8]; [19]
  Km: 5.5 ± 0.9 µM
[8]; [20]
  relative specificity: 0.5
[8]; pH 7.0, room temperature
  kcat: 0.0367 ± 0.0033 s⁻¹
  kcat/KM: 6700 M⁻¹ s⁻¹
[9]; [19]
  Km: 2.3 ± 0.3 µM
[9]; [20]
  relative specificity: 15.6
[9]; pH 7.0, room temperature
  kcat: 0.48 ± 0.0183 s⁻¹
  kcat/KM: 208000 M⁻¹ s⁻¹

## CCCC(=O)Oc1ccc([N+](=O)[O-])cc1 [pNB, p-Nitrophenyl butyrate]
[10]
  relative specificity: 1.0
[11]; [21]
  Km: 690 ± 90 µM
[11]; [20]
  relative specificity: 0.01
[11]; pH 7.5, room temperature
  kcat: 0.1 ± 0.0083 s⁻¹
  kcat/KM: 170 M⁻¹ s⁻¹
[12]; [21]
  Km: 550 ± 50 µM
[12]; [20]
  relative specificity: 0.4
[12]; pH 7.5, room temperature
  kcat: 2.97 ± 0.12 s⁻¹
  kcat/KM: 5330 M⁻¹ s⁻¹
[13]; [21]
  Km: 820 ± 100 µM
[13]; [20]
  relative specificity: 0.7
[13]; pH 7.5, room temperature
  kcat: 7.25 ± 0.467 s⁻¹
  kcat/KM: 8830 M⁻¹ s⁻¹
[14]; [21]
  Km: 500 ± 30 µM
[14]; [20]
  relative specificity: 0.5
[14]; pH 7.5, room temperature
  kcat: 2.85 ± 0.067 s⁻¹
  kcat/KM: 5670 M⁻¹ s⁻¹
[15]; [21]
  Km: 550 ± 70 µM
[15]; [20]
  relative specificity: 1.2
[15]; pH 7.5, room temperature
  kcat: 8.02 ± 0.483 s⁻¹
  kcat/KM: 14500 M⁻¹ s⁻¹
[16]; [21]
  Km: 510 ± 90 µM
[16]; [20]
  relative specificity: 1.4
[16]; pH 7.5, room temperature
  kcat: 8.67 ± 0.75 s⁻¹
  kcat/KM: 17000 M⁻¹ s⁻¹
[17]; [21]
  Km: 425 ± 50 µM
[17]; [20]
  relative specificity: 1.1
[17]; pH 7.5, room temperature
  kcat: 5.78 ± 0.267 s⁻¹
  kcat/KM: 13700 M⁻¹ s⁻¹
[18]; [21]
  Km: 580 ± 90 µM
[18]; [20]
  relative specificity: 7.1
[18]; pH 7.5, room temperature
  kcat: 50.85 ± 3.82 s⁻¹
  kcat/KM: 87700 M⁻¹ s⁻¹

Source: patent US8034579B2, “Proteins with enhanced functionality and methods of making novel proteins using circular permutation” (Emory University, priority 2005, dated 2011)
